# Measurements: US7910575B2, “Prophylactic or therapeutic agents for allergic ophthalmic diseases or allergic nasal diseases, comprising tricyclic triazolobenzazepine derivative” (Meiji Seika Kaisha, Ltd., priority 2006, dated 2011)
# “And” between values parts separate entries of the source, which are not always exact repeats. Equal values may be shown once. Where a name gives a salt, the structure may show the parent alone. Marks after values point to notes of the source that are not given here.
# What was measured:
# allergic rhinitis [1] = test: Therapeutic effect on allergic rhinitis (nasal drops one hr after induction); format: in vivo, rat; conditions: for Dye leakage amount increase Inhibition ratio: nasal drops, one hr after administration of the antigen
# Description: In the same manner as in Test Example 4-1, the allergic reaction was induced, and the vascular permeability in the late phase of the allergic rhinitis was measured. In this case, however, for the evaluation of the therapeutic effect, compound A, Amlexanox, and Ketotifen were administered one hr after the induction of the allergic reaction. Since greenie was leaked, the dose was doubled (10 μL) so that the dispersion of the medicament within the nasal cavities is not inhibited, and the concentration of the medicament was regulated with physiological saline to the half of the concentration in the experiment on prophylactic effect to render the dose per individual identical.
# The medicament was administered one hr after the administration of the antigen.
# allergic rhinitis [2] = test: Prophylactic effect on allergic rhinitis (nasal drops immediately before induction); format: in vivo, rat; conditions: for Increase in dye leakage amount Inhibition ratio: immediately before antigen administration
# Description: Male Sprague Dawley rats (n=6) were prepared. Bordetella pertussis (4×10^10) and 1 mg of dinitrophenylated ovalbumin (hereinafter referred to as “DNP-OA”) were subcutaneously administered into the footpad of the rats. […] After six hr from the antigen administration, Evans Blue (a dye) (50 mg/kg) was intravenously administered.
# After nine hr from the induction of the allergic reaction, the nasal septal mucosa of the rats was harvested, and the weight of the tissue was measured. The tissue of the nasal septal mucosa was lysed with 1 N KOH, and the leakage amount of the dye was determined as an index of vascular permeability in the late phase of the allergic rhinitis.
# In this case, physiological saline was administered instead of the antigen.
# In the table, the inhibition ratio was calculated by the following equation. Inhibition(%)=100×{(B−A)−(C−A)}÷(B−A)
# wherein A represents a negative control group (a nonsensitized group); B represents a control group; and C represents a medicament administered group.
# allergic conjunctivitis [3] = test: Therapeutic effect on allergic conjunctivitis (instillation three hr after induction); format: in vivo, rat; conditions: for Tissue weight increase: 5 μL/eye three hr after induction of the allergic reaction; for therapeutic effect on allergic conjunctivitis (in words): instillation three hr after induction
# Description: Compound A, Betamethasone, control group, and negative control group were administered at the same concentration as in Test Example 1-1, and the concentration of Betamethasone was as shown in Table 3. The test was carried out in the same manner as in Test Example 1-1, except that, three hr after the induction of the allergic reaction, for compound A, Betamethasone, control group, and negative control group were administered, the test solution was administered at a dose of 5 μL/eye to the right eye.
# allergic conjunctivitis [4] = test: Prophylactic effect on allergic conjunctivitis (instillation before induction, late phase); format: in vivo, rat; conditions: for Inhibition ratio Increase in tissue weight: Test Example 1-2, medicament concentration 0.1%, instillation before induction; for Inhibition ratio (%) Increase in tissue weight: 5 μL/eye 15 min before induction; for Inhibition ratio (%) Increase in dye leakage amount: 15 min before induction, Evans Blue
# Description: Male SD rats were prepared. Bordetella pertussis (4×10^10) and 1 mg of dinitrophenylated ovalbumin (hereinafter often abbreviated to “DNP-OA”) were subcutaneously administered into the footpad of the rats. After 8 to 10 days from the administration, a 3% DNP-OA solution was administered to the right eye of the rats to induce an allergic reaction. In some experiments, in order to confirm dye leakage and location of edema, a dye was injected, and, in the anatomy, the coincidence of dye leakage with the location of edema was confirmed. […] After 9 hr from the induction of the allergic reaction, the eyeballs of the rats were harvested. Further, lenses, hydatoids, and the contents of the vitreous body were removed from the eyeballs, and the weight of the tissues was measured. Furthermore, the dye leakage amount in the harvested eye tissue was measured. […] The absorbance (630 nm) of Evans Blue in the supernatant was measured with Multiskan JX (manufactured by Labsystem Ltd.). The amount of the dye was regarded as a dye leakage amount. […] For the control group, 0.15 M sodium hydrogencarbonate adjusted to pH 7.2 was administered. For a negative control group (a nonsensitization group), a 3% DNP-OA solution was administered to the right eye of the nonsensitized rats, and the solvent was used into the same manner as in the control group. The medicament or the solvent was administered to the right eye (5 μL/eye) 15 min before the induction of the allergic reaction. Compound A was administered at concentrations of 0.01%, 0.1%, and 1% for studies of dose response. In the table, the inhibition ratio was calculated by the following equation.
# [5] = tested on: epithelial cells of cornea in human eyes; test: Toxicity against epithelial cells of cornea, 24-hr cell survival rate; format: cell-based
# Description: Specifically, toxicity against epithelial cells of cornea in human eyes was studied.
# rabbit eye (conjunctiva) = test: Severe eye irritation test using rabbits; format: in vivo; conditions: instillation six times per day at 30 min intervals for two days
# [6] = Concentration of compound A in the eye tissue after instillation; format: in vivo, rabbit
# Description: A test solution (0.1% or 1%) of compound A in an isotonic borate buffer solution adjusted to pH 7.4 and a test solution (0.1%) of compound B in an isotonic borate buffer solution were provided, and 50 μL of each test solution was administered as ocular instillation to male rabbits.
# The concentration of compound A in the eye tissue after instillation was measured as follows. At the outset, the tissue was removed from the test animals and was cryopreserved. Purified water (0.1 mL) was added to a sufficient quantity of the cryopreserved tissue and the like followed by homogenization. Thereafter, 0.5 mL of 0.1% phosphoric acid, 0.05 mL of an internal standard solution (a predetermined internal standard substance ([…]) described in WO 95/18130), 0.05 mL of acetonitrile, and 0.05 mL of purified water were added thereto. An extraction solvent (25% chloroform/diethyl ether) (8 mL) was added, and the mixture was shaken and centrifuged. Thereafter, 7 mL of the organic layer was evaporated to dryness under the negative pressure, and the residue was dissolved in 0.3 mL of a mobile phase to give an analyte. A liquid prepared by mixing and dissolving 0.55 g of tetraoxyl ammonium bromide into 450 mL of acetonitrile, 450 mL of 10 mM phosphate buffer solution, and 100 mL of methanol was used as the mobile phase. The concentration of compound A was measured by injecting 0.025 mL of the analyte into high-performance liquid chromatography (HPLC) (measurement conditions: fluorescence excitation 270 nm, emission 466 nm).
# The concentration of only compound A in the eye tissue was measured because compound B is a prodrug of compound A.
# allergic conjunctivitis [7] = test: Prophylactic effect on allergic conjunctivitis (instillation before induction, late phase); format: in vivo, rat
# [8] = Test Example 4-2, nasal drops at concentrations of Table 9
# [9] = medicament concentration 0.1%, 0.5 μg/rat, 9 hr after induction
# [10] = medicament concentration 1%, 5 μg/rat, 9 hr after induction
structure (smiles),measurement,setting,value
CC(C)c1ccc2oc3nc(N)c(C(=O)O)cc3c(=O)c2c1 [Amlexanox],Dye leakage amount increase Inhibition ratio,"allergic rhinitis [1]; 0.125%, 25 μg/rat",25.0%
same,prophylactic effect on allergic rhinitis (in words),allergic rhinitis [2]; [8],had prophylactic effect on allergic rhinitis
same,Increase in dye leakage amount Inhibition ratio,"allergic rhinitis [2]; Test Example 4-2, nasal drops, 0.25%, 25 μg/rat",81.1% **
"C[C@H]1C[C@H]2[C@@H]3CCC4=CC(=O)C=C[C@]4(C)[C@@]3(F)[C@@H](O)C[C@]2(C)[C@@]1(O)C(=O)COP(=O)([O-])[O-].[Na+].[Na+] [Betamethazone, betamethazone sodium phosphate, reference compound]",Tissue weight increase,allergic conjunctivitis [3]; 0.1%,74.8% **
same,therapeutic effect on allergic conjunctivitis (in words),allergic conjunctivitis [3],potent therapeutic effect
"COc1cc2[nH]c(=O)c3nn[nH]c3c(=O)c2cc1OC [Compound A, 7,8-Dimethoxy-4(5H),10-dioxo-1H-1,2,3-triazolo[4,5-c][1]benzazepine]",Inhibition ratio Increase in tissue weight,allergic conjunctivitis [4],99.1% **
same,Inhibition ratio (%) Increase in tissue weight,"allergic conjunctivitis [4]; medicament concentration 0.01%, 0.05 μg/rat, eye harvested 9 hr after induction",67.0% **
same,Inhibition ratio (%) Increase in dye leakage amount,"allergic conjunctivitis [4]; medicament concentration 0.01%, 0.05 μg/rat, 9 hr after induction",74.4% **
same,Inhibition ratio (%) Increase in tissue weight,allergic conjunctivitis [4]; [9],89.0% **
same,Inhibition ratio (%) Increase in dye leakage amount,allergic conjunctivitis [4]; [9],83.9% **
same,Inhibition ratio (%) Increase in tissue weight,allergic conjunctivitis [4]; [10],83.7% **
same,Inhibition ratio (%) Increase in dye leakage amount,allergic conjunctivitis [4]; [10],87.6% **
same,therapeutic effect on allergic rhinitis (in words),allergic rhinitis [1]; nasal drops one hr after antigen,exhibited therapeutic effect on the allergic rhinitis
same,Dye leakage amount increase Inhibition ratio,"allergic rhinitis [1]; 0.05%, 10 μg/rat",93.8% **
same,non-toxic concentration relative to the maximum eye tissue concentration,[5]; 0.3 mM versus 4.7 μM (0.1% liquid instillation),not less than 60 times
same,toxicity against epithelial cells of cornea (24-hr cell survival rate),[5]; concentration range of 100 nM to 0.3 mM,any toxicity was not observed
same,prophylactic effect on allergic rhinitis (in words),"allergic rhinitis [2]; Test Example 4-1, nasal drops 0.01% to 1%",effective against allergic rhinitis dose-dependently
same,prophylactic effect on allergic rhinitis (in words),allergic rhinitis [2]; [8],had prophylactic effect on allergic rhinitis
same,Increase in dye leakage amount Inhibition ratio,"allergic rhinitis [2]; Test Example 4-2, nasal drops, 0.1%, 10 μg/rat",95.7% **
same,Increase in dye leakage amount Inhibition ratio,"allergic rhinitis [2]; nasal drops, 0.01%, 1 μg/rat, nasal septal mucosa 9 hr after induction",52.9% **
same,Increase in dye leakage amount Inhibition ratio,"allergic rhinitis [2]; nasal drops, 0.1%, 10 μg/rat, 9 hr after induction",111.7% **
same,Increase in dye leakage amount Inhibition ratio,"allergic rhinitis [2]; nasal drops, 1%, 100 μg/rat, 9 hr after induction",123.1% **
same,eye irritation,rabbit eye (conjunctiva); 0.5%,irritation was not observed at all
same,eye irritation,rabbit eye (conjunctiva); 3%,only slight reddening of the conjunctiva was observed
same,maximum eye tissue concentration,[6]; instillation of a 0.1% liquid,1.29 μg/g and 4.7 μM
same,concentration at 0.25 h,"[6]; male, eye tissue, topical, 50 μL of 1% solution, 1% test solution, 50 μL instillation, rabbit, 0.25 hr after instillation, average ± standard error",6090 ± 2200 ng/g
same,concentration at 1 h,"[6]; male, eye tissue, topical, 50 μL of 1% solution, 1% test solution, 50 μL instillation, rabbit, 1 hr after instillation",1150 ± 830 ng/g
same,concentration at 2 h,"[6]; male, eye tissue, topical, 50 μL of 1% solution, 1% test solution, 50 μL instillation, rabbit, 2 hr after instillation",1260 ± 940 ng/g
same,concentration at 4 h,"[6]; male, eye tissue, topical, 50 μL of 1% solution, 1% test solution, 50 μL instillation, rabbit, 4 hr after instillation",1380 ± 540 ng/g
same,concentration at 8 h,"[6]; male, eye tissue, topical, 50 μL of 1% solution, 1% test solution, 50 μL instillation, rabbit, 8 hr after instillation",660 ± 420 ng/g
same,concentration at 24 h,"[6]; male, eye tissue, topical, 50 μL of 1% solution, 1% test solution, 50 μL instillation, rabbit, 24 hr after instillation",60 ± 60 ng/g
same,Tissue weight increase,allergic conjunctivitis [3]; 0.01%,70.3% **
same,Tissue weight increase,allergic conjunctivitis [3]; 0.1%,99.9% **
same,Tissue weight increase,allergic conjunctivitis [3]; 1%,103.7% **
same,therapeutic effect on allergic conjunctivitis (in words),allergic conjunctivitis [3],potent therapeutic effect
"O=C(O)c1cc(=O)c2c(OCC(O)COc3cccc4oc(C(=O)O)cc(=O)c34)cccc2o1 [Cromoglycate, cromoglycate sodium]",Increase in dye leakage amount Inhibition ratio,"allergic rhinitis [2]; Test Example 4-2, nasal drops, 2%, 200 μg/rat",2.9%
same,Inhibition ratio Increase in tissue weight,"allergic conjunctivitis [7]; Test Example 1-2, medicament concentration 2%",14.7%
"CC(=O)[C@@]1(O)CC[C@H]2[C@@H]3C[C@H](C)C4=CC(=O)C=C[C@]4(C)[C@@]3(F)[C@@H](O)C[C@@]21C [Fluorometholone, fluorometholone, reference compound]",Inhibition ratio Increase in tissue weight,allergic conjunctivitis [4],59.4% *
"CCC(=O)O[C@]1(C(=O)SCF)[C@H](C)C[C@H]2[C@@H]3C[C@H](F)C4=CC(=O)C=C[C@]4(C)[C@@]3(F)[C@@H](O)C[C@@]21C [Fluticasone, fluticasone propinate]",Increase in dye leakage amount Inhibition ratio,"allergic rhinitis [2]; Test Example 4-2, nasal drops, 0.051%, 5.1 μg/rat",106.0% **
"CN1CCC(=C2c3ccccc3CC(=O)c3sccc32)CC1 [Ketotifen, ketotifen fumarate]",Dye leakage amount increase Inhibition ratio,"allergic rhinitis [1]; 0.0275%, 5.5 μg/rat",48.6%
same,prophylactic effect on allergic rhinitis (in words),allergic rhinitis [2]; [8],had prophylactic effect on allergic rhinitis
same,Increase in dye leakage amount Inhibition ratio,"allergic rhinitis [2]; Test Example 4-2, nasal drops, 0.055%, 5.5 μg/rat",49.4%
same,Inhibition ratio Increase in tissue weight,"allergic conjunctivitis [7]; Test Example 1-2, medicament concentration 0.05%",13.4%
"C[C@@H]1CN([C@H]2CC[C@](C#N)(c3ccc(F)cc3)CC2)CC[C@]1(C(=O)O)c1ccccc1 [Levocabastine, levocabastine hydrochloride]",Increase in dye leakage amount Inhibition ratio,"allergic rhinitis [2]; Test Example 4-2, nasal drops, 0.025%, 2.5 μg/rat",22.7%
same,Inhibition ratio Increase in tissue weight,"allergic conjunctivitis [7]; Test Example 1-2, medicament concentration 0.025%",11.1%
